As a reminder, the IC50 is the concentration needed to halve the response being measured.

Structures are written as SMILES. Like-named read-outs stand apart in the source and are kept apart here. Where only a bound is given, the exact number is not on record here.

The source of these data is patent US20260166039A1 (SCHRÖDINGER, INC., priority 2022, published 2026).

One assay addresses T1, Wee1 kinase domain (Homo sapiens, UniProt P30291).
T1 construct: Wee1 kinase domain was purchased from Carna (catalog #05-177); purchased Carna 05-177
Put plainly: Wee1 Kinase Biochemical Assay (ADP-Glo). The following applies: 15 uM ATP. In outline: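 ADP-Glo detection of ADP produced after 4 h at 25° C by 1 nM Wee1 kinase domain on 2 ng/mL poly(Lys,Tyr 4:1) with 15 uM ATP. Buffer: 40 mM Tris-HCl, 20 mM MgCl2, 0.1 mg/mL BSA, 2 mM DTT. Inhibition is relative to DMSO (high) and saturating Wee1 inhibitor (low) controls.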
Background: ADP-Glo first removes unused ATP, then detects ADP through luciferase.

For assay [1], the system named is phosphorylation of Cdc2 Y15 (Wee1 substrate) in A427 cells. The assay is described as follows: Phosphorylated Cdc2 MSD Electrochemiluminescence Assay. The class given is cell-based. As to conditions: Homo sapiens. In a few lines: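 Read-out: percent residual phospho-Cdc2 Y15 relative to DMSO and positive-control Wee1 inhibitor, measured by MSD electrochemiluminescence capture/detection antibody assay in cell lysates. A427 cells received duplicate 3-fold compound dilution series 20 h post-seeding, with 6 h total incubation at 37 °C.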

[2] abbreviates: class symbols, 1 nM Wee1 enzyme, 4 hours at 25° C.
Where [3] appears, read: A-427, class symbols, read-out: A427 pCDC2 MSD IC50.

T1 sequence (P30291 299-569 limits assumed): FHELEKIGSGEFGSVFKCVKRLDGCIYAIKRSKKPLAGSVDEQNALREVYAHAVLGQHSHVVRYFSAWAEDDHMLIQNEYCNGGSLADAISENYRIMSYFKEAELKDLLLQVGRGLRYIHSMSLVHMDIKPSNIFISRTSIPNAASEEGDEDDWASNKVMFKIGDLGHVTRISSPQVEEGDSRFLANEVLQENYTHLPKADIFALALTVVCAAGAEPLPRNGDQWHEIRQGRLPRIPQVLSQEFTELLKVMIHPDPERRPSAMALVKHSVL

On to `CN1CCN(c2ccc(Nc3ncc4c(n3)N(c3cccc(P(C)(C)=O)n3)[C@@H]3CC(C)(C)OC[C@]43C)cc2)CC1` (single isomer, unassigned) [Example 753], for which the IC50 is < 10 nM at Wee1 kinase domain (setting [2]) and 100 to 1000 nM in assay [1] (setting [3]).

On to `Cc1cc(Nc2ncc3c(n2)N(c2cccc(N4C(=O)OC[C@@H]4C)n2)[C@@H]2CC(C)(C)OC[C@]32C)ccc1N1CCN(C)CC1` (single isomer, unassigned) [Example 237], for which the half-inhibitory concentration (IC50) against Wee1 kinase domain (Wee1 kinase domain, ADP-Glo) is < 10 nM; in assay [1] (A-427, pCDC2 MSD), < 100 nM.

As to `CNCc1cccc(N2c3nc(Nc4ccc5c(c4)C(=O)N(C)C5)ncc3[C@@]3(C)COC(C)(C)C[C@@H]23)n1` (single isomer, unassigned) [Example 32], the IC50 against Wee1 kinase domain (Wee1 kinase domain, ADP-Glo) was < 10 nM; in assay [1] (A-427, pCDC2 MSD), 100 to 1000 nM.

`CN1[C@@H]2C[C@H]1CN(c1ccc(Nc3ncc4c(n3)N(c3cccc(C(C)(C)O)n3)[C@@H]3CC(C)(C)OC[C@]43C)cc1)C2` (single isomer, unassigned) [Example 441]: the concentration for half-maximal inhibition (IC50) is < 10 nM against Wee1 kinase domain (setting [2]) and 100 to 1000 nM in assay [1] (setting [3]).

On to `C[C@H]1COC(=O)N1c1cccc(N2c3nc(Nc4ccc([C@H]5CCN(C)C5)cc4)ncc3[C@@]3(C)COC(C)(C)C[C@@H]23)n1` (single isomer, unassigned) [Example 306], for which the IC50 against Wee1 kinase domain (Wee1 kinase domain, ADP-Glo) was < 10 nM; in assay [1] (A-427, pCDC2 MSD) it was 100 to 1000 nM.

Regarding `CN1CCC(n2cc(Nc3ncc4c(n3)N(c3cccc(N=S(C)(C)=O)c3)[C@@H]3CC(C)(C)OC[C@]43C)cn2)CC1` [Example 716, dimethyl((3-((4bR,8aR)-4b,7,7-trimethyl-2-((1-(1-methylpiperidin-4-yl)-1H-pyrazol-4-yl)amino)-4b,7,8,8a-tetrahydropyrano[3′,4′:4,5]pyrrolo[2,3-d]pyrimidin-9(5H)-yl)phenyl)imino)-16-sulfanone], the IC50 against Wee1 kinase domain (setting [2]) was < 10 nM; in assay [1] (setting [3]), 1000 to 10000 nM.

In the case of `Cc1cc(Nc2ncc3c(n2)N(c2cccc(C(C)(C)O)n2)[C@@H]2CC(C)(C)OC[C@]32C)ccc1N1CCN(C)CC1` (single isomer, unassigned) [Example 9], the half-inhibitory concentration (IC50) against Wee1 kinase domain (Wee1 kinase domain, ADP-Glo) is < 10 nM; in assay [1] (A-427, pCDC2 MSD), 100 to 1000 nM.

For the compound `CN1CC[C@@](C)(c2ccc(Nc3ncc4c(n3)N(c3cccc(N=S(C)(C)=O)n3)[C@@H]3CC(C)(C)OC[C@]43C)cc2)C1` (single isomer, unassigned) [Example 169], the IC50 against Wee1 kinase domain (Wee1 kinase domain, ADP-Glo) was < 10 nM; in assay [1] (A-427, pCDC2 MSD), < 100 nM.

Turning to `CN1CCN(c2ccc(Nc3ncc4c(n3)N(c3cccc(N5CCCC5=O)n3)[C@@H]3CC(C)(C)OC[C@]43C)cc2)CC1` (single isomer, unassigned) [Example 587], the figures for the 50% inhibitory concentration (IC50) (on Wee1 kinase domain (setting [2]); in assay [1] (setting [3])) were < 10 nM and 100 to 1000 nM, respectively.

Regarding `Cc1cncc(Nc2ncc3c(n2)N(c2cccc(N=S(C)(C)=O)n2)[C@@H]2CC(C)(C)OC[C@]32C)c1` (single isomer, unassigned) [Example 492], the IC50 was < 10 nM against Wee1 kinase domain (setting [2]) and < 100 nM in assay [1] (setting [3]).

Consider `CC1(C)C[C@H]2N(c3cccc(P(C)(C)=O)n3)c3nc(Nc4ccn([C@@H]5CCOC5)c(=O)c4)ncc3[C@@]2(C)CO1` [Example 783, 4-(((4bR,8aR)-9-(6-(dimethylphosphoryl)pyridin-2-yl)-4b,7,7-trimethyl-4b,5,7,8,8a,9-hexahydropyrano[3′,4′:4,5]pyrrolo[2,3-d]pyrimidin-2-yl)amino)-1-((R)-tetrahydrofuran-3-yl)pyridin-2(1H)-one], for which the values for the IC50 (at Wee1 kinase domain (setting [2]); in assay [1] (setting [3])) were < 10 nM and < 100 nM, respectively.

For `CN(C)Cc1cccc(N2c3nc(Nc4ccn(C5CCOCC5)c(=O)c4)ncc3[C@@]3(C)COC(C)(C)C[C@@H]23)n1` (single isomer, unassigned) [Example 387], the concentration for half-maximal inhibition (IC50) at Wee1 kinase domain (Wee1 kinase domain, ADP-Glo) is < 10 nM; in assay [1] (A-427, pCDC2 MSD), 1000 to 10000 nM.

For `Cc1cc(Nc2ncc3c(n2)N(c2cccc([C@@H]4CCCN4)n2)[C@@H]2CC(C)(C)OC[C@]32C)ccc1N1CCOCC1` (single isomer, unassigned) [Example 529], the results for the IC50 (against Wee1 kinase domain (setting [2]); in assay [1] (setting [3])) were < 10 nM and 100 to 1000 nM, respectively.

With `CNCc1cccc(N2c3nc(Nc4ccc(N5CCOCC5)cc4)ncc3[C@@]3(C)COC(C)(C)C[C@@H]23)n1` (single isomer, unassigned) [Example 5], the IC50 on Wee1 kinase domain (Wee1 kinase domain, ADP-Glo) is < 10 nM; in assay [1] (A-427, pCDC2 MSD) it was 100 to 1000 nM.

Regarding `CN1CC[C@@H](Oc2ccc(Nc3ncc4c(n3)N(c3cccc(N5CCOC5=O)n3)[C@@H]3CC(C)(C)OC[C@]43C)cc2)C1` [Example 624, 3-(6-((4bR,8aR)-4b,7,7-trimethyl-2-((4-(((R)-1-methylpyrrolidin-3-yl)oxy)phenyl)amino)-4b,7,8,8a-tetrahydropyrano[3′,4′:4,5]pyrrolo[2,3-d]pyrimidin-9(5H)-yl)pyridin-2-yl)oxazolidin-2-one], the IC50 at Wee1 kinase domain (setting [2]) is < 10 nM; in assay [1] (setting [3]) it was 100 to 1000 nM.

With `CC1(C)C[C@H]2N(c3cccc(N=S(C)(C)=O)n3)c3nc(Nc4ccc5nccn5c4)ncc3[C@@]2(C)CO1` (single isomer, unassigned) [Example 504], the IC50 at Wee1 kinase domain (setting [2]) is < 10 nM; in assay [1] (setting [3]) it was 100 to 1000 nM.

As to `CN1CCN(c2ccc(Nc3ncc4c(n3)N(c3ccccn3)[C@@H]3CC(C)(C)OC[C@]43C)cc2)CC1` (single isomer, unassigned) [Example 722], the IC50 against Wee1 kinase domain (setting [2]) is < 10 nM; in assay [1] (setting [3]), 100 to 1000 nM.

With `CN1C[C@H]2C[C@@H]1CN2c1ccc(Nc2ncc3c(n2)N(c2cccc(N4CCOC4=O)n2)[C@@H]2CC(C)(C)OC[C@]32C)cc1` (single isomer, unassigned) [Example 593], the IC50 at Wee1 kinase domain (setting [2]) was < 10 nM; in assay [1] (setting [3]) it was 100 to 1000 nM.

Take `CN1CC[C@H](Oc2ccc(Nc3ncc4c(n3)N(c3cccc(C(C)(C)O)n3)[C@@H]3CC(C)(C)OC[C@]43C)cc2)C1` (single isomer, unassigned) [Example 421]: the values for the IC50 (against Wee1 kinase domain (setting [2]); in assay [1] (setting [3])) were < 10 nM and < 100 nM, respectively.

In the case of `CNCc1cccc(N2c3nc(Nc4ccc(-n5nccn5)cc4)ncc3[C@@]3(C)COC(C)(C)C[C@@H]23)n1` (single isomer, unassigned) [Example 767], the IC50 was < 10 nM against Wee1 kinase domain (setting [2]) and 100 to 1000 nM in assay [1] (setting [3]).

As for `CC1(C)C[C@H]2N(c3cccc(N4CCOC4=O)n3)c3nc(Nc4ccc([C@@H]5CNC[C@@H]5F)cc4)ncc3[C@@]2(C)CO1` [Example 675, 3-(6-((4bR,8aR)-2-((4-((3R,4R)-4-fluoropyrrolidin-3-yl)phenyl)amino)-4b,7,7-trimethyl-4b,7,8,8a-tetrahydropyrano[3′,4′:4,5]pyrrolo[2,3-d]pyrimidin-9(5H)-yl)pyridin-2-yl)oxazolidin-2-one], the figures for the IC50 (at Wee1 kinase domain (setting [2]); in assay [1] (setting [3])) were < 10 nM and 100 to 1000 nM, respectively.

As for `CN1CC[C@H]2CN(c3ccc(Nc4ncc5c(n4)N(c4cccc(N6CCOC6=O)n4)[C@@H]4CC(C)(C)OC[C@]54C)cc3)C[C@H]21` [Example 684, 3-(6-((4bR,8aR)-4b,7,7-trimethyl-2-((4-((3aS,6aS)-1-methylhexahydropyrrolo[3,4-b]pyrrol-5(1H)-yl)phenyl)amino)-4b,7,8,8a-tetrahydropyrano[3′,4′:4,5]pyrrolo[2,3-d]pyrimidin-9(5H)-yl)pyridin-2-yl)oxazolidin-2-one], the figures for the IC50 (on Wee1 kinase domain (setting [2]); in assay [1] (setting [3])) were < 10 nM and 100 to 1000 nM, respectively.

`CN1CCC(c2ccc(Nc3ncc4c(n3)N(c3cccc(N=S(C)(C)=O)n3)[C@H]3CC(C)(C)OC[C@@]43C)cc2)CC1` (single isomer, unassigned) [Example 112]: the IC50 on Wee1 kinase domain (Wee1 kinase domain, ADP-Glo) is < 10 nM; in assay [1] (A-427, pCDC2 MSD), < 100 nM.

In the case of `CN1Cc2cc(Nc3ncc4c(n3)N(c3cccc(N=S(C)(C)=O)n3)[C@@H]3CC(C)(C)OC[C@]43C)ccc2C(C)(C)C1` (single isomer, unassigned) [Example 135], the IC50 against Wee1 kinase domain (Wee1 kinase domain, ADP-Glo) is < 10 nM; in assay [1] (A-427, pCDC2 MSD), < 100 nM.

For `C[C@H]1COC(=O)N1c1cccc(N2c3nc(Nc4cnn(C5CCNCC5)c4)ncc3[C@@]3(C)COC(C)(C)C[C@@H]23)n1` (single isomer, unassigned) [Example 255], the IC50 against Wee1 kinase domain (Wee1 kinase domain, ADP-Glo) is < 10 nM; in assay [1] (A-427, pCDC2 MSD), 100 to 1000 nM.

On to `CNCc1cccc(N2c3nc(Nc4ccc([C@]5(C)CCN(C)C5=O)cc4)ncc3[C@@]3(C)COC(C)(C)C[C@@H]23)n1` (single isomer, unassigned) [Example 78], for which the IC50 against Wee1 kinase domain (Wee1 kinase domain, ADP-Glo) is < 10 nM; in assay [1] (A-427, pCDC2 MSD), 100 to 1000 nM.

For `CN1CC[C@H]2CN(c3ccc(Nc4ncc5c(n4)N(c4cccc(N=S(C)(C)=O)n4)[C@@H]4CC(C)(C)OC[C@]54C)cc3)C[C@H]21` (single isomer, unassigned) [Example 503], the half-inhibitory concentration (IC50) is < 10 nM against Wee1 kinase domain (setting [2]) and < 100 nM in assay [1] (setting [3]).

Turning to `CN1CC[C@](C)(c2ccc(Nc3ncc4c(n3)N(c3cccc(N=S(C)(C)=O)n3)[C@@H]3CC(C)(C)OC[C@]43C)cc2)C1` (single isomer, unassigned) [Example 168], the IC50 is < 10 nM against Wee1 kinase domain (Wee1 kinase domain, ADP-Glo) and < 100 nM in assay [1] (A-427, pCDC2 MSD).

With `CNCc1cccc(N2c3nc(Nc4ccc(S(C)(=O)=O)cc4)ncc3[C@@]3(C)COC(C)(C)C[C@@H]23)n1` (single isomer, unassigned) [Example 34], the IC50 at Wee1 kinase domain (Wee1 kinase domain, ADP-Glo) was < 10 nM; in assay [1] (A-427, pCDC2 MSD), 100 to 1000 nM.

For `CC1(C)C[C@H]2N(c3cccc(N=S(C)(C)=O)n3)c3nc(Nc4cnccn4)ncc3[C@@]2(C)CO1` (single isomer, unassigned) [Example 366], the IC50 against Wee1 kinase domain (Wee1 kinase domain, ADP-Glo) was < 10 nM; in assay [1] (A-427, pCDC2 MSD), 1000 to 10000 nM.

`CN1CC(c2ccc(Nc3ncc4c(n3)N(c3cccc(N=S(C)(C)=O)n3)[C@@H]3CC(C)(C)OC[C@]43C)cc2Cl)C1` (single isomer, unassigned) [Example 181]: the IC50 against Wee1 kinase domain (Wee1 kinase domain, ADP-Glo) is < 10 nM; in assay [1] (A-427, pCDC2 MSD) it was < 100 nM.
